Results published in publication PMC11939361, “diAcCA, a Pro-Drug for Carnosic Acid That Activates the Nrf2 Transcriptional Pathway, Shows Efficacy in the 5xFAD Transgenic Mouse Model of Alzheimer’s Disease” (Antioxidants, 2025).
“Also recorded” adds a separate entry of the source. Like-named read-outs stand apart in the source and are kept apart here.

Legend:
5xFAD mice [1] = test: Contextual and cued conditioned fear test; format: in vivo, mouse; conditions: diAcCA PO for 3 months
Protocol: (§1) diAcCA or control vehicle was administered three times per week for 3 months to 5xFAD Tg or WT littermate control mice starting at approximately 5 months of age by oral gavage (designated here as “per os” or PO). Three different doses were used (10 mg/kg, 20 mg/kg, or 50 mg/kg). diAcCA was dissolved in olive oil vehicle, a non-polar organic solvent. For vehicle control, we administered olive oil alone. A total of 45 animals were used in this study, with 7–8 animals in each group.
Contextual and cued learning processes in mice rely on the hippocampus and amygdala, respectively. Fear conditioning is used to evaluate both of these processes. During the conditioning period, mice are trained to associate a context (distinctive environment) and a conditioned stimulus (CS, neutral stimulus consisting of a tone and light) with an unpleasant foot shock to which the mice learn to respond by freezing their movement. Here, we evaluated hippocampal function using the contextual and cued conditioned fear test. […]
On day 1, the mice were acclimatized to the chambers in a 5 min session with no shock. […] On day 3, a 5 min trial took place in the original training chamber (context test) and contextual conditioning was evaluated by observing freezing behavior. […]

5xFAD mice [2] = test: Quantitative confocal immunohistochemistry (Q-IHC) of hippocampal sections; format: in vivo, mouse
Protocol: The 5xFAD mice bear five mutations linked to AD. Three of these are in the App695 gene [Swedish (APP K670N/M671L), Florida (I716V), London (V717I)], and two are in the PSEN1 gene [L286V, M146L]. Male 5xFAD breeder mice were obtained from Jackson Laboratories (#034848-JAX, Bar Harbor, ME, USA) and crossed with female 6XC57BL6 mice. Genotyping was performed by PCR. First-generation pups were used for all experiments with 5xFAD transgenic (Tg) and WT littermate control mice.
as §1
For euthanasia, animals were deeply anesthetized with isoflurane and then transcardially perfused with ice-cold phosphate-buffered saline (PBS) followed by 4% paraformaldehyde (PFA) for fixation. Brains were isolated and post-fixed in 4% PFA overnight at 4 °C. The next day, brains were washed and transferred to 30% sucrose at 4 °C until sectioning. Every brain then received a masked code for the following steps, and the code was only broken after all quantifications were completed.
Sagittal sections (40 μm-thick) were prepared using a vibratome (Leica VT1200S) and incubated in blocking buffer (5% goat serum, 0.5% Triton X-100 in PBS) for 1 h at room temperature to prevent non-specific binding. Following blocking, floating sections were incubated in their respective primary antibody solutions on a shaker overnight at 4 °C. Antibodies against the following proteins were used in this study: NeuN (D4G4O, 1:500, rabbit mAb #24307, Cell Signaling Technology, Danvers, MA, USA), Synapsin I (D12G5, 1:500, rabbit mAb #5297, Cell Signaling Technology), phosphor (Ser202, Thr205)-tau (AT8, 1:500, mAb #MN1020, ThermoFisher Scientific, Waltham, MA, USA), glial fibrillary acidic protein (GFAP) (GA5, 1:500, MAB360, Millipore Sigma, Carlsbad, CA, USA), ionized calcium binding adaptor molecule 1 (Iba1) (EPR16589, 1:1000, #ab178847, Abcam, Waltham, MA, USA), human nuclear antigen (HuNu) (1:500, mouse mAb #191181, Abcam), and caspase-1 (1:50, rabbit pAb #AB1871, Sigma Aldrich, St. Louis, MO, USA). For Aβ staining, floating sections were pre-treated with 90% formic acid (28905, Thermo Scientific) for 1 min at room temperature. They were then rinsed and blocked, following which they were incubated in anti-β-amyloid 17–24 antibody (4G8, 1:1000, #800708, BioLegend, San Diego, CA, USA) on a shaker overnight at 4 °C.
The next day, immunostaining was performed on brain sections after 3 washes in PBS and incubation in the appropriate secondary antibody solution on a shaker for 2 h at room temperature. Secondary antibodies included Alexa 488 (A11008, 1:500, goat anti-rabbit, Life Technologies, Carlsbad, CA, USA) and Alexa 555 (A21424, 1:500, goat anti-mouse, Life Technologies). The sections were again washed with PBS 3 times, mounted on Superfrost plus slides (12-550-15, Fisher Scientific, Waltham, MA, USA) and dried at room temperature. The slides were then coated with Vectashield plus antifade mounting medium, stained with nuclear dye DAPI (H-2000, Vector Laboratories, San Francisco, CA, USA), and a coverslip (12541057, Fisher Scientific) was applied. For each brain, 3–6 images were acquired for each individual marker using a confocal fluorescence microscope (Nikon Eclipse Ti2) (Figure 1, Figure 2 and Figure 3, Supplementary Figure S1). Post image processing, quantification was performed using Fiji ImageJ (1.54f). For the Iba1-stained slides, a mask was made of cells co-labeled for HuNu and Iba1, and then caspase 1 staining was measured. […]

[3] = mouse, in vivo
Protocol: We tested both CA and diAcCA compounds by oral gavage/PO at 10 mg/kg. Analysis was performed by LC-MS in the Scripps Florida Drug Development Core (Jupiter, FL, USA). The compounds were formulated in olive oil. CA went into the oil with minimal stirring, but diAcCA required longer stirring. Blood was collected in hematocrit tubes and centrifuged. […] Drug is therefore likely absorbed via enterocyte passage and through chylomicron absorbance, complicating the early time points of the PK curves.
Therefore, we decided to pre-weigh the CA into a vial and, in the vivarium, rapidly dissolve the compound in DMSO and then add Tween80/saline. The compound was dosed within five minutes of being dissolved, and the final concentrations were 5% DMSO and 95% of a 5% Tween80 solution in saline. […] Oral clearance calculations assume 100% bioavailability.
We also determined the stability and bioavailability of diAcCA compared to CA. For this purpose, individual mice were administered CA or diAcCA IV or via oral gavage/PO. For CA, the doses were 3 mg/kg for the IV route and 10 mg/kg for oral gavage/PO, and for diAcCA 10 mg/kg by oral gavage/PO.

[4] = Brain levels of CA from prior plasma/brain PK data; format: in vivo; conditions: for Cmax: mouse, read-out: predicted Cmax in the brain
Protocol: We also determined the stability and bioavailability of diAcCA compared to CA. For this purpose, individual mice were administered CA or diAcCA IV or via oral gavage/PO. For CA, the doses were 3 mg/kg for the IV route and 10 mg/kg for oral gavage/PO, and for diAcCA 10 mg/kg by oral gavage/PO. Plasma concentrations were evaluated at ten different time points over the next 72 h (raw data shown in Tables S1 and S2, Supplementary Materials).
The extensive existing PK data obtained on plasma and brain samples for CA, correlated with prior in vivo efficacy data for CA [26, 33, 49], allowed us to calculate the therapeutic dose range that we wanted to test here for diAcCA.

[5] = 5xFAD hippocampus, 10, 20 or 50 mg/kg PO three times a week for 3 months vs vehicle

CC(=O)Oc1c(C(C)C)cc2c(c1OC(C)=O)[C@@]1(C(=O)O)CCCC(C)(C)[C@@H]1CC2 [diAcCA]
context test of conditioned fear, freezing behavior (5xFAD mice [1]): showed freezing behavior similar to WT mice | GFAP MFI, astrocytes (5xFAD mice [2]; [5]): significantly improved; also recorded: reduced GFAP MFI | Iba1 integrated density (ID), microglial density (5xFAD mice [2]; [5]): significantly improved; also recorded: improved IBA ID | NeuN mean fluorescence intensity (MFI), neuronal density (5xFAD mice [2]; [5]): significantly improved; also recorded: restored NeuN MFI (representing neuronal number) to near normal levels | Synapsin I MFI, presynaptic density (5xFAD mice [2]; [5]): significantly improved; also recorded: restored Synapsin I MFI (located in the presynaptic terminal of the synapse) to near normal levels | percent area of Aβ accumulation (4G8) (5xFAD mice [2]; [5]): significantly reduced the area of Aβ accumulation; also recorded: significantly reduced the area of Aβ aggregates | percentage area of pTau aggregates (AT8) (5xFAD mice [2]; 5xFAD hippocampus, each treatment dose (10, 20, 50 mg/kg PO, 3 months) vs vehicle): remarkable decrease in the area of pTau aggregates; also recorded: dramatically reduced the area of pTau aggregates | half-life (t1/2) [3]: over 12 h | Cmax greater than after CA itself ([3]; po): ~30% | Cmax of CA in plasma ([3]; po, 10 mg/kg): 5.75 | Tmax ([3]; po, 10 mg/kg): 1.67 h | average half-life ([3]; po, 10 mg/kg): 12.27 h | mean Cmax of CA ([3]; po, 10 mg/kg): 5750 nM | t1/2 ([3]; po, 10 mg/kg): 12.27 h | time to peak plasma levels of CA after administration of diAcCA ([3]; po, 10 mg/kg): ~ 15 min | time to reach neurotherapeutic levels in the brain ([4]; after conversion of diAcCA to CA): less than 1 h | Cmax ([4]; diAcCA 10 mg/kg PO): ~600 nM | Cmax ([4]; diAcCA 20 mg/kg PO): ~1200 nM | Cmax ([4]; diAcCA 50 mg/kg PO): ~3000 nM
